Laboratory results: patent publication US6737383B1, “Herbicidal oxadiazolidines” (priority 1999, dated 2004)

Assays:
soybean = experiment: Test B pre/postemergence soybean; type: in vivo, Glycine max
Procedure, shortened: (§1)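 Herbicidal effect was estimated by eye on a ten-point control scale after plants spent twelve to sixteen days in a greenhouse following soil or foliar treatment. Foliar sprays targeted plants at one to four leaves; all doses were formulated in a non-phytotoxic solvent with surfactant.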

corn = experiment: Test B pre/postemergence corn; type: in vivo, Zea mays
Procedure, shortened: as §1

wheat = experiment: Test B pre/postemergence wheat; type: in vivo, Triticum aestivum
Procedure, shortened: as §1

wild oat = experiment: Test B pre/postemergence wild oat; type: in vivo, Avena fatua
Procedure, shortened: as §1

rice = experiment: Test B flood test rice; type: in vivo, Oryza sativa
Procedure, shortened: (§2)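 Plants were grown to the 2-leaf stage before treatment with test chemical, then held in a greenhouse for twelve to sixteen days. Injury was visually rated against untreated controls on a 0–10 scale, where 0 is no effect and 10 is complete control.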

cocklebur = experiment: Test B pre/postemergence cocklebur; type: in vivo, Xanthium strumarium
Procedure, shortened: as §1

sugar beet = experiment: Test B pre/postemergence sugar beet; type: in vivo, Beta vulgaris
Procedure, shortened: as §1

velvetleaf = experiment: Test B pre/postemergence velvetleaf; type: in vivo, Abutilon theophrasti
Procedure, shortened: as §1

smallflower flatsedge = experiment: Test B flood test smallflower flatsedge; type: in vivo, Cyperus difformis
Procedure, shortened: as §2

bamyardgrass = experiment: Test B flood test barnyardgrass; type: in vivo, Echinochloa crus-galli
Procedure, shortened: as §2

duck salad = experiment: Test B flood test duck salad; type: in vivo, Heteranthera limosa
Procedure, shortened: as §2

blackgrass = experiment: Test B pre/postemergence blackgrass; type: in vivo, Alopecurus myosuroides
Procedure, shortened: as §1

purple nutsedge = experiment: Test B pre/postemergence purple nutsedge; type: in vivo, Cyperus rotundus
Procedure, shortened: as §1

surinam grass = experiment: Test B pre/postemergence surinam grass; type: in vivo, Brachiaria decumbens
Procedure, shortened: as §1

crabgrass = experiment: Test B pre/postemergence crabgrass; type: in vivo, Digitaria sanguinalis
Procedure, shortened: as §1

bedstraw = experiment: Test B pre/postemergence bedstraw; type: in vivo, Galium aparine; conditions: Postemergence
Procedure, shortened: as §1

[1] = Postemergence, Rate 250 g/ha, scale 0 to 10
[2] = Postemergence, Rate 500 g/ha, scale of 0 to 10 where 0 is no effect and 10 is complete control
[3] = Preemergence, Rate 62 g/ha, scale 0 to 10 (0 no effect, 10 complete control)
[4] = Preemergence, Rate 125 g/ha, scale of 0 to 10 where 0 is no effect and 10 is complete control
[5] = Preemergence, Rate 250 g/ha, scale 0 to 10, 0 is no effect, 10 is complete control
[6] = Preemergence, Rate 500 g/ha, scale 0 to 10, 0 is no effect, 10 is complete control
[7] = Rate 62 g/ha, Postemergence, scale 0 to 10 (0 no effect, 10 complete control)
[8] = Rate 125 g/ha, Postemergence, scale 0 to 10, 0 is no effect, 10 is complete control
[9] = Postemergence block (flood test species), Rate 250 g/ha, scale 0 to 10
[10] = Postemergence section (flood test species), Rate 500 g/ha, scale of 0 to 10 where 0 is no effect and 10 is complete control
[11] = Rate 62 g/ha, Postemergence (flood test), scale 0 to 10, 0 no effect, 10 complete control
[12] = Rate 125 g/ha, Postemergence section (flood test species), scale 0 to 10, 0 is no effect, 10 is complete control

CC(C)N(C(=O)n1oc(=O)n(C(C)C#N)c1=O)c1ccccc1 (centres unmarked) [Compound 435]
Soybean plant response rating (soybean; [1]): 1
Soybean plant response rating (soybean; [2]): 3
Plant response rating, Soybean (soybean; [3]): 0
Plant response rating, Soybean (soybean; [4]): 0
Soybean plant response rating (soybean; [5]): 0
Soybean plant response rating (soybean; [6]): 0
Soybean plant response rating (soybean; [7]): 0
Soybean plant response rating (soybean; [8]): 1
Corn plant response rating (corn; [1]): 0
Corn plant response rating (corn; [2]): 0
Plant response rating, Corn (corn; [3]): 0
Plant response rating, Corn (corn; [4]): 0
Corn plant response rating (corn; [5]): 0
Corn plant response rating (corn; [6]): 0
Corn plant response rating (corn; [7]): 0
Corn plant response rating (corn; [8]): 0
Wheat plant response rating (wheat; [1]): 0
Wheat plant response rating (wheat; [2]): 0
Plant response rating, Wheat (wheat; [3]): 0
Plant response rating, Wheat (wheat; [4]): 0
Wheat plant response rating (wheat; [5]): 0
Wheat plant response rating (wheat; [6]): 0
Wheat plant response rating (wheat; [7]): 0
Wheat plant response rating (wheat; [8]): 0
Wild oats plant response rating (wild oat; [1]): 0
Wild oats plant response rating (wild oat; [2]): 3
Plant response rating, Wild oats (wild oat; [3]): 0
Plant response rating, Wild oats (wild oat; [4]): 0
Wild oats plant response rating (wild oat; [5]): 2
Wild oats plant response rating (wild oat; [6]): 3
Wild oats plant response rating (wild oat; [7]): 0
Wild oats plant response rating (wild oat; [8]): 0
Rice plant response rating (rice; [9]): 0
Rice plant response rating (rice; [10]): 0
Rice plant response rating (rice; [11]): 0
Rice plant response rating (rice; [12]): 0
Cocklebur plant response rating (cocklebur; [1]): 0
Cocklebur plant response rating (cocklebur; [2]): 0
Plant response rating, Cocklebur (cocklebur; [3]): 0
Plant response rating, Cocklebur (cocklebur; [4]): 0
Cocklebur plant response rating (cocklebur; [5]): 0
Cocklebur plant response rating (cocklebur; [6]): 0
Cocklebur plant response rating (cocklebur; [7]): 0
Cocklebur plant response rating (cocklebur; [8]): 0
Sugarbeets plant response rating (sugar beet; [1]): 0
Sugarbeets plant response rating (sugar beet; [2]): 0
Plant response rating, Sugarbeets (sugar beet; [3]): 0
Plant response rating, Sugarbeets (sugar beet; [4]): 0
Sugarbeets plant response rating (sugar beet; [5]): 0
Sugarbeets plant response rating (sugar beet; [6]): 1
Sugarbeets plant response rating (sugar beet; [7]): 0
Sugarbeets plant response rating (sugar beet; [8]): 0
Velvetleaf plant response rating (velvetleaf; [1]): 0
Velvetleaf plant response rating (velvetleaf; [2]): 0
Plant response rating, Velvetleaf (velvetleaf; [3]): 0
Plant response rating, Velvetleaf (velvetleaf; [4]): 0
Velvetleaf plant response rating (velvetleaf; [5]): 1
Velvetleaf plant response rating (velvetleaf; [6]): 2
Velvetleaf plant response rating (velvetleaf; [7]): 0
Velvetleaf plant response rating (velvetleaf; [8]): 0
S. Flatsedge plant response rating (smallflower flatsedge; [9]): 0
S. Flatsedge plant response rating (smallflower flatsedge; [10]): 0
S. Flatsedge plant response rating (smallflower flatsedge; [11]): 0
S. Flatsedge plant response rating (smallflower flatsedge; [12]): 0
Barnyardgrass plant response rating (bamyardgrass; [9]): 0
Barnyardgrass plant response rating (bamyardgrass; [10]): 0
Barnyardgrass plant response rating (bamyardgrass; [11]): 0
Barnyardgrass plant response rating (bamyardgrass; [12]): 0
Ducksalad plant response rating (duck salad; [9]): 0
Ducksalad plant response rating (duck salad; [10]): 0
Ducksalad plant response rating (duck salad; [11]): 0
Ducksalad plant response rating (duck salad; [12]): 0
Blackgrass plant response rating (blackgrass; [1]): 6
Blackgrass plant response rating (blackgrass; [2]): 8
Plant response rating, Blackgrass (blackgrass; [3]): 0
Plant response rating, Blackgrass (blackgrass; [4]): 0
Blackgrass plant response rating (blackgrass; [5]): 0
Blackgrass plant response rating (blackgrass; [6]): 2
Blackgrass plant response rating (blackgrass; [7]): 0
Blackgrass plant response rating (blackgrass; [8]): 0
Nutsedge plant response rating (purple nutsedge; [1]): 0
Nutsedge plant response rating (purple nutsedge; [2]): 3
Plant response rating, Nutsedge (purple nutsedge; [3]): 0
Plant response rating, Nutsedge (purple nutsedge; [4]): 0
Nutsedge plant response rating (purple nutsedge; [5]): 0
Nutsedge plant response rating (purple nutsedge; [6]): 0
Nutsedge plant response rating (purple nutsedge; [7]): 0
Nutsedge plant response rating (purple nutsedge; [8]): 0
B. signalgrass plant response rating (surinam grass; Postemergence, Rate 250 g/ha, scale 0 to 10, 0 no effect, 10 complete control): 1
B. signalgrass plant response rating (surinam grass; [2]): 3
Plant response rating, B. signalgrass (surinam grass; [3]): 0
Plant response rating, B. signalgrass (surinam grass; [4]): 0
B. signalgrass plant response rating (surinam grass; [5]): 0
B. signalgrass plant response rating (surinam grass; [6]): 1
B. signalgrass plant response rating (surinam grass; [7]): 0
B. signalgrass plant response rating (surinam grass; [8]): 0
Crabgrass plant response rating (crabgrass; [1]): 7
Crabgrass plant response rating (crabgrass; [2]): 8
Plant response rating, Crabgrass (crabgrass; [4]): 2
Crabgrass plant response rating (crabgrass; [5]): 6
Crabgrass plant response rating (crabgrass; [6]): 9
Crabgrass plant response rating (crabgrass; [7]): 0
Crabgrass plant response rating (crabgrass; [8]): 2
Bedstraw plant response rating (bedstraw; Rate 250 g/ha, scale 0 to 10): 0
Bedstraw plant response rating (bedstraw; Rate 500 g/ha, scale of 0 to 10 where 0 is no effect and 10 is complete control): 0
Bedstraw plant response rating (bedstraw; Rate 62 g/ha, scale 0 to 10 (0 no effect, 10 complete control)): 0
Bedstraw plant response rating (bedstraw; Rate 125 g/ha, scale 0 to 10, 0 is no effect, 10 is complete control): 0
